# Laboratory results taken from US8680139B2 (Progenra, priority 2009, dated 2014).
# Key:
# USP7 = target: T1, USP7 (Homo sapiens, UniProt Q93009); assay: USP7, Ub-PLA2 assay; assay type: biochemical; settings: for EC50: Ub-PLA2 / NBD C6-HPC fluorescence, 30 minute preincubation, read-out: EC50 for inhibition of USP7; for USP7 inhibition, result in words: USP7, Ub-PLA2 assay
# T1 construct: full length human USP7 protein; made in house
# How it was run: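 Activity read as fluorescence in a Ub-PLA2 format, with percent inhibition calculated within each plate against DMSO (uninhibited) and NEM (background) wells. Vehicle was 100% DMSO.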
# [1] = HCT-116 Cellular Cytotoxicity Assay; settings: human, HCT-116 cells, pH 7.2
# Procedure: The purpose of this assay is to determine if any of the synthesized compounds are cytotoxic against HCT-116 cells, as measured by resazurin metabolism. Resazurin is metabolized only by living cells from a non-fluorescent molecule into Resorufin, a highly red fluorescent dye. […] The cells were cultured in an incubator at 37° C. in 5% CO2 and 95% humidified air. […] The final concentration DMSO was 0.5% (v/v) in all samples. The plates were returned to the incubator for 72 hours. Following 72 hours of test compound exposure, 10 μL of 0.2 mg/mL Resazurin (Sigma) in phosphate buffered saline was added to each well and the plate was returned to the incubator for 3-6 hours. Since living cells metabolize Resazurin, the fluorescence of the reduction product of Resazurin was measured using a microplate fluorometer with λex=531 nm and λem=590 nm filters. Resazurin dye in medium without cells was used to determine the background, which was subtracted from the data for all experimental wells.
# T1 sequence (Q93009 whole entry): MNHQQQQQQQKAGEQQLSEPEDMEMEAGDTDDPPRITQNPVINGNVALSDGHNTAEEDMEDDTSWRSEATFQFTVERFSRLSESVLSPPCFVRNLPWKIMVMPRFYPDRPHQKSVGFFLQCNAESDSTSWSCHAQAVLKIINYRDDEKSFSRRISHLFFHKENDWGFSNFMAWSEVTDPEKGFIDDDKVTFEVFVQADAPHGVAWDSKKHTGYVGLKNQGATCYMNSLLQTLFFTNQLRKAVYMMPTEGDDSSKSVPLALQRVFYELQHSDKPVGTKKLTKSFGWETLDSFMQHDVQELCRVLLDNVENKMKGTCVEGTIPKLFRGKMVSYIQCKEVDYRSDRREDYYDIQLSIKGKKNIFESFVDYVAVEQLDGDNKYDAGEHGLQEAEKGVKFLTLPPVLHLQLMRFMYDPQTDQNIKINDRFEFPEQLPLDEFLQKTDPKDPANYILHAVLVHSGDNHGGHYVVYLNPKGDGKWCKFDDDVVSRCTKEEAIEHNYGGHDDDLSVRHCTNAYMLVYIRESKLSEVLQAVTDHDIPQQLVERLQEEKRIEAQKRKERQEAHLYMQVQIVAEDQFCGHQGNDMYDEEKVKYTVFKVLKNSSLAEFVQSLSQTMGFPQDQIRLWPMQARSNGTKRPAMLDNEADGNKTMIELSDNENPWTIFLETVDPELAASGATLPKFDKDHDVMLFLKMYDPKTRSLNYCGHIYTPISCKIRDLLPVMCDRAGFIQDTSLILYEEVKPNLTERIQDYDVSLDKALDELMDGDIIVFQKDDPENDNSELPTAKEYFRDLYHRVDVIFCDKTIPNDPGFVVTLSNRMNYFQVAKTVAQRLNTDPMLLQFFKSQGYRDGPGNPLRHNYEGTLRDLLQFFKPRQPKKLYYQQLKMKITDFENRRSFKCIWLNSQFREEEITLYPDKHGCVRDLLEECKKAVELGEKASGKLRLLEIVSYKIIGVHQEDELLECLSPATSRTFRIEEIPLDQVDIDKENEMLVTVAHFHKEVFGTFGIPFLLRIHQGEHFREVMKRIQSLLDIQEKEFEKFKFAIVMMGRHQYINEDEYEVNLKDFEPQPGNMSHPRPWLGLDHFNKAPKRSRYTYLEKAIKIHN
EC50 (USP7) [µM],"USP7 inhibition, result in words (USP7)",SMILES,EC50 at 72 h [1] [µM]
1 to 10,–,"CN(C)CCC(=O)c1cc([N+](=O)[O-])c(Sc2ccc(Cl)cc2Cl)s1 [Example 24, 1-[5-(2,4-dichlorophenyl)sulfanyl-4-nitro-2-thienyl]-3-dimethylamino-propan-1-one]",27.3
≤ 1,Particularly good results,"O=C(Nc1cnc2ccccc2c1)c1cc([N+](=O)[O-])c(Sc2c(Cl)cncc2Cl)s1 [Example 173, 5-((3,5-dichloropyridin-4-yl)thio)-4-nitro-N-(quinolin-3-yl)thiophene-2-carboxamide]",5.15
≤ 1,Particularly good results,"CS(=O)(=O)c1ccc(NC(=O)c2cc([N+](=O)[O-])c(Sc3c(Cl)cncc3Cl)s2)cc1 [Example 129, 5-((3,5-dichloropyridin-4-yl)thio)-N-(4-(methylsulfonyl)phenyl)-4-nitrothiophene-2-carboxamide]",5.89
1 to 10,–,"CC(=O)c1cc([N+](=O)[O-])c(Sc2cc(Cl)cc(Cl)c2)s1 [Example 9, 1-[5-(3,5-Dichlorophenylsulfanyl)-4-nitro-2-thienyl]ethanone]",8.13
1 to 10,–,"CN1CCC(NC(=O)c2cc(C#N)c(Sc3c(Cl)cncc3Cl)s2)CC1 [Example 203, 4-cyano-5-((3,5-dichloropyridin-4-yl)thio)-N-(1-methylpiperidin-4-yl)thiophene-2-carboxamide]",10.4
1 to 10,–,"CC(=O)c1cc([N+](=O)[O-])c(Sc2c(Cl)cccc2Cl)s1 [Example 7, 1-[5-(2,6-Dichlorophenylsulfanyl)-4-nitro-2-thienyl]ethanone]",30.6
1 to 10,–,"CC(=O)c1cc([N+](=O)[O-])c(Sc2ccc(Cl)cc2Cl)s1 [Example 2, 1-[5-(2,4-Dichlorophenylsulfanyl)-4-nitro-2-thienyl]ethanone]",16.1
≤ 1,–,"NS(=O)(=O)c1ccc(NC(=O)c2cc([N+](=O)[O-])c(Sc3c(Cl)cncc3Cl)s2)cc1 [Example 160, 5-((3,5-dichloropyridin-4-yl)thio)-4-nitro-N-(4-sulfamoylphenyl)thiophene-2-carboxamide]",6.17
≤ 1,–,"O=C(Nc1ccc(N2CCOCC2)cc1)c1cc([N+](=O)[O-])c(Sc2c(Cl)cncc2Cl)s1 [Example 157, 5-((3,5-dichloropyridin-4-yl)thio)-N-(4-morpholinophenyl)-4-nitrothiophene-2-carboxamide]",27.3
> 10,–,"CC(=O)c1cc(C#N)c(Sc2ccc(Cl)cc2Cl)s1 [Example 21, 1-[4-cyano-5-(2,4-dichlorophenyl)sulfanyl-2-thienyl]ethanone]",32.5
≤ 1,–,"O=C(Nc1ccc2ncccc2c1)c1cc([N+](=O)[O-])c(Sc2c(Cl)cncc2Cl)s1 [Example 180, 5-((3,5-dichloropyridin-4-yl)thio)-4-nitro-N-(quinolin-6-yl)thiophene-2-carboxamide]",7.62
≤ 1,Particularly good results,"CN(C)CCCOc1ccc(NC(=O)c2cc([N+](=O)[O-])c(Sc3c(Cl)cncc3Cl)s2)cc1 [Example 193, 5-[(3,5-dichloro-4-pyridyl)sulfanyl]-N-[4-(3-dimethylaminopropoxy)phenyl]-4-nitro-thiophene-2-carboxamide]",3.37
≤ 1,–,"Cc1cnc(CNC(=O)c2cc([N+](=O)[O-])c(Sc3c(Cl)cncc3Cl)s2)cn1 [Example 103, 5-((3,5-dichloropyridin-4-yl)thio)-N-((5-methylpyrazin-2-yl)methyl)-4-nitrothiophene-2-carboxamide]",7.18
≤ 1,–,"Cc1cc(NC(=O)c2cc([N+](=O)[O-])c(Sc3c(Cl)cncc3Cl)s2)n(CCN(C)C)n1 [Example 182, 5-((3,5-dichloropyridin-4-yl)thio)-N-(1-(2-(dimethylamino)ethyl)-3-methyl-1H-pyrazol-5-yl)-4-nitrothiophene-2-carboxamide]",14.3
≤ 1,–,"O=C(Nc1cccc2cnccc12)c1cc([N+](=O)[O-])c(Sc2c(Cl)cncc2Cl)s1 [Example 179, 5-((3,5-dichloropyridin-4-yl)thio)-N-(isoquinolin-5-yl)-4-nitrothiophene-2-carboxamide]",4.23
1 to 10,–,"CN(C)CCC(O)c1cc([N+](=O)[O-])c(Sc2ccc(Cl)cc2Cl)s1 (centres unmarked) [Example 25, 1-[5-(2,4-dichlorophenyl)sulfanyl-4-nitro-2-thienyl]-3-dimethylamino-propan-1-ol]",15.2
≤ 1,–,"CN(C)CCOc1ccc(NC(=O)c2cc([N+](=O)[O-])c(Sc3c(Cl)cncc3Cl)s2)cc1 [Example 192, 5-((3,5-dichloropyridin-4-yl)thio)-N-(4-(2-(dimethylamino)ethoxy)phenyl)-4-nitrothiophene-2-carboxamide]",4.9
≤ 1,–,"O=C(Nc1nccs1)c1cc([N+](=O)[O-])c(Sc2c(Cl)cncc2Cl)s1 [Example 172, 5-((3,5-dichloropyridin-4-yl)thio)-4-nitro-N-(thiazol-2-yl)thiophene-2-carboxamide]",12.9

EC50 (USP7) [µM],"USP7 inhibition, result in words (USP7)",SMILES,EC50 at 72 h [1] [µM]
≤ 1,–,"COc1ccc(CNC(=O)c2cc([N+](=O)[O-])c(Sc3c(Cl)cncc3Cl)s2)cc1OC [Example 98, 5-((3,5-dichloropyridin-4-yl)thio)-N-(3,4-dimethoxybenzyl)-4-nitrothiophene-2-carboxamide]",–
≤ 1,–,"O=C(NCc1cccc(F)c1)c1cc([N+](=O)[O-])c(Sc2c(Cl)cncc2Cl)s1 [Example 128, 5-((3,5-dichloropyridin-4-yl)thio)-N-(3-fluorobenzyl)-4-nitrothiophene-2-carboxamide]",–
≤ 1,–,"O=C(NC1CCCCC1)c1cc([N+](=O)[O-])c(Sc2c(Cl)cncc2Cl)s1 [Example 154, N-cyclohexyl-5-((3,5-dichloropyridin-4-yl)thio)-4-nitrothiophene-2-carboxamide]",–
1 to 10,–,"NC(=O)c1cc([N+](=O)[O-])c(Sc2c(Cl)cncc2Cl)s1 [Example 46, 5-[(3,5-dichloro-4-pyridyl)sulfanyl]-4-nitro-thiophene-2-carboxamide]",–
1 to 10,–,"CC(C)(C)OC(=O)N1CCC(NC(=O)c2cc([N+](=O)[O-])c(Sc3c(Cl)cncc3Cl)s2)CC1 [Example 85, tert-butyl 4-(5-((3,5-dichloropyridin-4-yl)thio)-4-nitrothiophene-2-carboxamido)piperidine-1-carboxylate]",–
> 10,–,"O=C(Nc1cccc2cccnc12)c1cc([N+](=O)[O-])c(Sc2c(Cl)cncc2Cl)s1 [Example 78, 5-((3,5-dichloropyridin-4-yl)thio)-4-nitro-N-(quinolin-8-yl)thiophene-2-carboxamide]",–
1 to 10,–,"O=C(NCc1ccc2c(c1)CCO2)c1cc([N+](=O)[O-])c(Sc2c(Cl)cncc2Cl)s1 [Example 70, 5-((3,5-dichloropyridin-4-yl)thio)-N-((2,3-dihydrobenzofuran-5-yl)methyl)-4-nitrothiophene-2-carboxamide]",–
1 to 10,–,"CN(C)C1CCN(CCCNC(=O)c2cc([N+](=O)[O-])c(Sc3c(Cl)cncc3Cl)s2)CC1 [Example 224, 5-((3,5-dichloropyridin-4-yl)thio)-N-(3-(4-(dimethylamino)piperidin-1-yl)propyl)-4-nitrothiophene-2-carboxamide]",–
≤ 1,–,"CS(=O)(=O)N1CCC(NC(=O)c2cc([N+](=O)[O-])c(Sc3c(Cl)cncc3Cl)s2)CC1 [Example 233, 5-((3,5-dichloropyridin-4-yl)thio)-N-(1-(methylsulfonyl)piperidin-4-yl)-4-nitrothiophene-2-carboxamide]",–
> 10,–,"CC(O)c1cc([N+](=O)[O-])c(Sc2cccc(Cl)c2Cl)s1 (centres unmarked) [Example 19, 1-[5-(2,3-dichlorophenyl)sulfanyl-4-nitro-2-thienyl]ethanol]",–
> 10,–,"CN1CCC(NC(=O)c2cc([N+](=O)[O-])c(Oc3c(Cl)cccc3Cl)s2)CC1 [Example 261, 5-(2,6-dichlorophenoxy)-N-(1-methylpiperidin-4-yl)-4-nitrothiophene-2-carboxamide]",–
1 to 10,–,"COCCNC(=O)CNC(=O)c1cc([N+](=O)[O-])c(Sc2c(Cl)cncc2Cl)s1 [Example 214, 5-((3,5-dichloropyridin-4-yl)thio)-N-(2-((2-methoxyethyl)amino)-2-oxoethyl)-4-nitrothiophene-2-carboxamide]",–
≤ 1,–,"CC(C)(C)NC(=O)c1cc([N+](=O)[O-])c(Sc2c(Cl)cncc2Cl)s1 [Example 153, N-(tert-butyl)-5-((3,5-dichloropyridin-4-yl)thio)-4-nitrothiophene-2-carboxamide]",–
≤ 1,–,"CC1(C)CCN(CCCNC(=O)c2cc([N+](=O)[O-])c(Sc3c(Cl)cncc3Cl)s2)CC1 [Example 229, 5-((3,5-dichloropyridin-4-yl)thio)-N-(3-(4,4-dimethylpiperidin-1-yl)propyl)-4-nitrothiophene-2-carboxamide]",–
≤ 1,–,"CSCCCNC(=O)c1cc([N+](=O)[O-])c(Sc2c(Cl)cncc2Cl)s1 [Example 194, 5-((3,5-dichloropyridin-4-yl)thio)-N-(3-(methylthio)propyl)-4-nitrothiophene-2-carboxamide]",–
1 to 10,–,"O=C(NCc1ccc(-c2ccccc2)cc1)c1cc([N+](=O)[O-])c(Sc2c(Cl)cncc2Cl)s1 [Example 63, N-([1,1′-biphenyl]-4-ylmethyl)-5-((3,5-dichloropyridin-4-yl)thio)-4-nitrothiophene-2-carboxamide]",–
1 to 10,–,"O=C(NCC(=O)N1CCCCC1)c1cc([N+](=O)[O-])c(Sc2c(Cl)cncc2Cl)s1 [Example 221, 5-((3,5-dichloropyridin-4-yl)thio)-4-nitro-N-(2-oxo-2-(piperidin-1-yl)ethyl)thiophene-2-carboxamide]",–
